Structures can show the parent of a compound that is named as a salt.
Experiments:
[1] = smell evaluation of stored triethylene glycol samples by three experts (Experimental Example 2); parameters: key: +: no smell of rancidity; -: strong smell of rancidity; conditions: samples of Experimental Example 1 after 6 days storage
Method: The sample of the Example of the present invention and Comparison Examples 1, 2, and 3 in Experimental Example 1, obtained after 6 days storage, were evaluated with respect to the smell thereof.
The evaluation was made by three experts.

[2] = anti-oxidizing effect against oxidation of phospholipid/ethanol mixed micell by Fe^2+.ascorbic acid (Experimental Example 3); type: biochemical; conditions: 4.0 × 10^-5 M
Method: The anti-oxidizing effect of the sodium salt of phosphoric acid diester prepared in Preparation Example 2 against the oxidation of a phospholipid (egg lecitin)/ethanol mixed micell by Fe^2+.ascorbic acid was examined.
About 78 mg of egg lecitin was dissolved in 2 ml of ethanol, and 5 mM HEPES buffer solution (pH 7.2) was gradually added to the solution with ice cooling under the application of an ultrasonic wave (50 W) to form a suspension, until the total amount was 100 ml. Then, 200 μl of a 2.6×10^-4 M aqueous solution of the sodium salt of phosphoric acid diester was added to 1000 μl of the so-formed liquid. Then 50 μl of a 5.0×10^-5 M aqueous solution of sodium ascorbate and 50 μl of a 2.5×10^-6 M aqueous solution of ferrous sulfate were added to the mixture, and oxidation was carried out for 15 minutes in a water bath at 25° C. After the reaction, 50 μl of a 0.1% solution of hydroquinone in ethanol was immediately added to stop the reaction. […] After cooling, the absorbance at 450 to 600 nm was measured by a spectrophotometer. The increase of the absorption in the vicinity of about 530 to about 540 nm in the obtained curve was measured. The inhibition ratio was determined by comparing the obtained result with the result obtained at the blank test not using the test liquid.

[3] = solubility in water; type: physicochemical
[4] = amount of formalin in triethylene glycol stored at 50° C., by colorimetry (Experimental Example 1); conditions: 50% aqueous triethylene glycol; for amount of formalin, After 3 Days / amount of formalin, After 6 Days / amount of formalin, Just After Preparation: 2 mg antioxidant in 10 g
Method: As the example of the present invention, 2 mg of the sodium salt of phosphoric acid diester obtained in Preparation Example 2 was dissolved in 10 g of a 50% aqueous solution of triethylene glycol (supplied by Nakarai Chemicals Co., Ltd.), the solution was stored in a thermostat tank maintained at 50° C. for 3 or 6 days, and the amount of formalin was measured by colorimetry.
Triethylene glycol free of any antioxidant as Comparison Example 1, triethylene glycol in which ascorbic acid was added in the same amount as in the Example of the present invention, as Comparison Example 2, and triethylene glycol in which mixed tocopherol was incorporated in the same amount as in the example of the present invention, as Comparison Example 3, were tested in the same manner as described above.

[5] = cited from earlier work

Row | Molecule | Judgement of Smell [1] | solubility in water (in words) [3] | amount of formalin, After 3 Days ([4]; 50° C.) | amount of formalin, After 6 Days ([4]; 50° C.) | amount of formalin, Just After Preparation [4] | further results
1 | Cc1c(C)c2c(c(C)c1OP(=O)(O)OC1=C(O)[C@@H]([C@@H](O)CO)OC1=O)CCC(C)(CCCC(C)CCCC(C)CCCC(C)C)O2 (mixture of isomers) [sodium salt of phosphoric acid diester, sodium L-ascorbic DL-α-tocopherol phoschate] | + | soluble in water | 1.7 | 15.5 | 0.1 | inhibition of the oxidation (in words) [2]: substantially completely inhibited the oxidation; Inhibition Ratio ([2]; oxidation 15 minutes at 25° C., pH 7.2 HEPES, TBA absorbance about 530 to about 540 nm, 40 µM): 99.1%; anti-oxidizing effect compared with ascorbic acid or tocopherol alone (in words) ([4]; 50° C., 3 or 6 days): much higher anti-oxidizing effect
2 | Cc1c(C)c2c(c(C)c1OP(=O)(O)OC1=C(O)[C@@H]([C@@H](O)CO)OC1=O)CCC(C)(CCCC(C)CCCC(C)CCCC(C)C)O2 (stereo partly shown) [calcium salt] |  | insoluble in water |  |  |  | 
3 | tocopherol |  |  |  |  |  | solubility of tocopherol in water (in words) [5]: not soluble in water
4 | Cc1c(C)c2c(c(C)c1OP(=O)(O)OC1=C(O)[C@@H]([C@@H](O)CO)OC1=O)CCC(C)(CCCC(C)CCCC(C)CCCC(C)C)O2 (mixture of isomers) [potassium salt, potassium L-ascorbic DL-α-tocopherol phosphate] |  | soluble in water |  |  |  | 
5 | O=C1O[C@H]([C@@H](O)CO)C(O)=C1O [ascorbic acid, reference compound] | - |  | 39.6 | 111.7 | 0.1 | 
6 | Cc1c(C)c2c(c(C)c1OP(=O)(O)OC1=C(O)[C@@H]([C@@H](O)CO)OC1=O)CCC(C)(CCCC(C)CCCC(C)CCCC(C)C)O2 (mixture of isomers) [phosphoric acid diester, L-ascorbic DL-α-tocopherol phosphate] |  | freely dissolved in water |  |  |  | 
